Where two headings read alike, the source gives them in different places.
Assays:
Format in all cases: in vivo
Pyrenophora teres = assay: Greenhouse test, 4 day residual, Pyrenophora teres on barley (Examples 13, 16); conditions: 96 h, single product, read-out: Observed Efficacy; for pest or weed control at 0.4 ppm: dose rate 0.4 ppm; for pest or weed control at 2 ppm: dose rate 2 ppm; for pest or weed control at 10 ppm: dose rate 10 ppm; for pest or weed control at 50 ppm: dose rate 50 ppm
Protocol: (§1) The trials are carried out under greenhouse (Examples 1 to 18) or field conditions (Example 19) in residual or curative applications. The fungicides are applied in single treatments, or in a combination comprising a benzophenone of formula I and a compound selected from the classes (A) through (E) as defined above. The compounds are applied in form of an aqueous spray mix obtained from concentrated formulation or the technical material.
(§2) 1. Seed is planted in 6 cm diameter plastic pots and maintained in the greenhouse.
(§3) 2. When the primary leaf is fully expanded in the case of cereals or several leaves are present in the case of dicots, formulated test compounds are sprayed with a three nozzle overhead fungicide sprayer to near run-off. Alternatively, a single nozzle overhead track sprayer is used for application of the compounds to cereals at a rate of 200 l/ha. Plants are then allowed to air-dry.
(§4) 3. Inoculation precedes treatment in the case of curative evaluations and follows treatment in case of residual evaluations.
(§5) For inoculation of non-powdery mildew diseases, an aqueous spore suspension of the pathogen is applied to the plant and the plants are kept 1-2 days in a moist infection chamber before being returned to the greenhouse where they are maintained by bottom watering.
(§6) 4. Disease on the foliage as percent leaf area with disease symptoms/signs is evaluated about 7 days after inoculation. In the case of wheat, the tips and bases of the leaves are excluded from the evaluation. [formula]
(§7) 1. Technical compounds are formulated in a solvent/surfactant system consisting of 5% acetone and 0.05% Tween 20 in deionized water. Compounds are dissolved in acetone prior to addition of the water; the Tween 20 can be added through either the acetone or the water. Dilutions are made using the solvent/surfactant system. Formulated compounds are prepared using deionized water.
(§8) Assessments of the diseases took place at the indicated day after the application of the compounds. Per cent infected leaf area infected was evaluated. The efficacy of the compounds/compounds mixtures to control the diseases was calculated by using the formula given above under item 4: […]
(§9) Synergy was calculated using the % disease control values of specific treatments for the two COLBY formula given hereinabove
Fungicidal Efficacy of the Mixture of BP4+Other Fungicides (4 Day Residual) Against Pyrenophora teres on barley
Fungicidal Efficacy of the Mixture of BP4+Other Fungicides (4 Day Residual) Against Pyrenophora teres on Barley

Erysiphe cichoracearum = assay: Greenhouse test, 4 day residual, Erysiphe cichoracearum on cucumbers (Examples 6, 11, 14); conditions: Golovinomyces cichoracearum, 96 h, read-out: Observed Efficacy; for pest or weed control at 0.4 ppm: dose rate 0.4 ppm; for pest or weed control at 2 ppm: dose rate 2 ppm; for pest or weed control at 10 ppm: dose rate 10 ppm; for pest or weed control at 50 ppm: dose rate 50 ppm
Protocol: as §1, §2, §3, §4
(§10) For inoculation of powdery mildew disease, plants are set up on greenhouse benches with bottom watering mats and inoculated by dusting them with conidia from infected plants. Between inoculation and treatment for curative evaluations and between treatment and inoculation for residual evaluations, plants are maintained in the greenhouse with bottom watering.
as §6, §7, §8, §9
Fungicidal Efficacy of the Mixture of BP-4+Other Fungicides (4 Day Residual) Against Erysiphe cichoracearum on Cucumbers
Fungicidal Efficacy of the Mixture of BP4+Other Fungicides (4 Day Residual) Against Erysiphe cichoracearum on Cucumbers

Puccinia recondita = assay: Greenhouse test, 4 day residual, Puccinia recondita on wheat (Examples 7, 9, 12, 15); conditions: 96 h, read-out: Observed Efficacy; for pest or weed control at 0.4 ppm: dose rate 0.4 ppm; for pest or weed control at 2 ppm: dose rate 2 ppm; for pest or weed control at 10 ppm: dose rate 10 ppm; for pest or weed control at 50 ppm: dose rate 50 ppm; for pest or weed control at 4 ppm: dose rate 4 ppm; for pest or weed control at 16 ppm: dose rate 16 ppm
Protocol: as §1, §2, §3, §4, §5, §6, §7, §8, §9
Fungicidal Efficacy of the Mixture of BP-4+Other Fungicides (4 Day Residual) Against Puccinia recondita on Wheat
Fungicidal Efficacy of the Mixture of BP4+Other Fungicides (4 Day Residual) Against Puccinia recondita on Wheat
Fungicidal Efficacy of the Mixture of BP-4+Myclobutanil (4 Day Residual) Against Puccinia recondita on Wheat

Leptosphaeria nodorum = assay: Greenhouse test, 4 day residual, Leptosphaeria nodorum on wheat (Examples 8, 10); conditions: Parastagonospora nodorum, 96 h, single compound, read-out: Observed Efficacy; for pest or weed control at 4 ppm: dose rate 4 ppm; for pest or weed control at 16 ppm: dose rate 16 ppm; for pest or weed control at 64 ppm: dose rate 64 ppm; for pest or weed control at 256 ppm: dose rate 256 ppm
Text: as §1, with “The” for “The trials are carried out under greenhouse (Examples 1 to 18) or field conditions (Example 19) in residual or curative applications. The”
as §2, §3, §4, §5, §6, §7, §8, §9

[1] = system: Blumeria graminis f. sp. tritici; assay: Greenhouse test, 2 day curative, Blumeria graminis f. sp. tritici on wheat (Example 17); conditions: Table XVII, single compound
Protocol: as §1, §2, §3, §4, §10, §6, §7, §8, §9
Fungicidal Efficacy of the Mixture of Different Benzophenones+Metconazole (2 Day Curative) Against Blumeria graminis f. sp. tritici on Wheat

Uncinula necator = assay: Greenhouse test, 1 day residual, Uncinula necator on vines (Example 18); conditions: Table XVIII, single compound
Protocol: as §1, §2, §3, §4, §10, §6, §7, §8, §9
Fungicidal Efficacy of the Mixture of BP-4+AP-4 (1 Day Residual) Against Uncinula necator on Vines

[2] = Example 14, Table XIV, single product, cucumbers
[3] = Table XI, single compound or product
[4] = Example 15, Table XV, single product, wheat

## COc1cc(C)c(C(=O)c2c(C)ccc(Br)c2OC)c(OC)c1OC [BP-4, 3-bromo-2′,6-dimethyl-2,4′,5′,6′-tetramethoxybenzophenone]
Pyrenophora teres; Example 13, Table XIII
  pest or weed control at 0.4 ppm: 0%
  pest or weed control at 2 ppm: 0%
  pest or weed control at 10 ppm: 34%
  pest or weed control at 50 ppm: 58%
Pyrenophora teres; Example 16, Table XVI
  pest or weed control at 0.4 ppm: 0%
  pest or weed control at 2 ppm: 0%
  pest or weed control at 10 ppm: 0%
  pest or weed control at 50 ppm: 11%
Erysiphe cichoracearum; [2]
  pest or weed control at 0.4 ppm: 0%
  pest or weed control at 2 ppm: 0%
  pest or weed control at 10 ppm: 13%
  pest or weed control at 50 ppm: 97%
Erysiphe cichoracearum; Table VI, single compound, dose rate 1 ppm
  pest or weed control at 1 ppm: 1%
Erysiphe cichoracearum; Table VI, single compound, dose rate 4 ppm
  pest or weed control at 4 ppm: 6%
Erysiphe cichoracearum; Table VI, single compound, dose rate 16 ppm
  pest or weed control at 16 ppm: 51%
Erysiphe cichoracearum; Table VI, single compound, dose rate 64 ppm
  pest or weed control at 64 ppm: 100%
Erysiphe cichoracearum; [3]
  pest or weed control at 0.4 ppm: 0%
  pest or weed control at 2 ppm: 2%
  pest or weed control at 10 ppm: 55%
  pest or weed control at 50 ppm: 96%
Puccinia recondita; [4]
  pest or weed control at 0.4 ppm: 0%
  pest or weed control at 2 ppm: 0%
  pest or weed control at 10 ppm: 6%
  pest or weed control at 50 ppm: 12%
Puccinia recondita; Table IX, single compound
  pest or weed control at 4 ppm: 6%
  pest or weed control at 16 ppm: 4%
Puccinia recondita; Table IX, single compound, dose rate 64 ppm
  pest or weed control at 64 ppm: 16%
Puccinia recondita; Table IX, single compound, dose rate 256 ppm
  pest or weed control at 256 ppm: 38%
Puccinia recondita; Table VII, single compound
  pest or weed control at 4 ppm: 0%
  pest or weed control at 16 ppm: 0%
Puccinia recondita; Table XII, single compound
  pest or weed control at 0.4 ppm: 2%
  pest or weed control at 2 ppm: 7%
  pest or weed control at 10 ppm: 10%
  pest or weed control at 50 ppm: 31%
Leptosphaeria nodorum; Table VIII
  pest or weed control at 4 ppm: 0%
  pest or weed control at 16 ppm: 0%
  pest or weed control at 64 ppm: 14%
  pest or weed control at 256 ppm: 34%
Leptosphaeria nodorum; Table X
  pest or weed control at 4 ppm: 0%
  pest or weed control at 16 ppm: 10%
  pest or weed control at 64 ppm: 18%
  pest or weed control at 256 ppm: 44%
[1]; dose rate 0.67 ppm
  Observed Efficacy: 9%
[1]; dose rate 2 ppm
  Observed Efficacy: 27%
[1]; dose rate 6 ppm
  Observed Efficacy: 42%
[1]; dose rate 18 ppm
  Observed Efficacy: 78%
[1]; dose rate 54 ppm
  Observed Efficacy: 92%
Uncinula necator; dose rate 0.25 ppm
  Observed Efficacy: 0%
Uncinula necator; dose rate 0.5 ppm
  Observed Efficacy: 21%
Uncinula necator; dose rate 1 ppm
  Observed Efficacy: 28%
Uncinula necator; dose rate 2 ppm
  Observed Efficacy: 9%
Uncinula necator; dose rate 4 ppm
  Observed Efficacy: 43%
Uncinula necator; dose rate 8 ppm
  Observed Efficacy: 42%

## CC(C1CC1)C(O)(Cn1cncn1)c1ccc(Cl)cc1 (stereo not drawn) [Cyproconazole]
Puccinia recondita; [4]
  pest or weed control at 0.4 ppm: 58%

— patent US6521628B1, “Fungicidal mixtures” (BASF Aktiengesellschaft, priority 1999, dated 2003)
